Measurements as given in ChEMBL document CHEMBL3885881, “DrugMatrix”.

Species: Rattus norvegicus
Assay: DrugMatrix - Regimen: Daily Repeat
Assay type: toxicity, organism-based, Sprague-Dawley
Set-up: regimen Daily Repeat, gender Male, age 6-8 weeks
Conditions: in vivo, po, route oral GAVAGE, vehicle .5 % CMC; for ABSOLUTE BASOPHIL / ABSOLUTE EOSINOPHIL / ABSOLUTE LYMPHOCYTE / ABSOLUTE MONOCYTE / ABSOLUTE SEGMENTED NEUTROPHIL / BASOPHIL / EOSINOPHIL / ERYTHROCYTE COUNT / HEMATOCRIT / HEMOGLOBIN / LEUKOCYTE COUNT / LYMPHOCYTE / MEAN CORPUSCULAR HEMOGLOBIN / MEAN CORPUSCULAR HEMOGLOBIN CONCENTRATION / MEAN CORPUSCULAR VOLUME / MONOCYTE / NEUTROPHIL / NUCLEATED RED BLOOD CELLS / PLATELET COUNT: tissue Blood; for ALANINE AMINOTRANSFERASE / ALBUMIN / ALKALINE PHOSPHATASE / ASPARTATE AMINOTRANSFERASE / BLOOD UREA NITROGEN / CARBON DIOXIDE / CHLORIDE / CHOLESTEROL / CREATINE PHOSPHOKINASE / CREATININE / GLUCOSE / LACTATE DEHYDROGENASE / LIPASE / PHOSPHORUS / POTASSIUM / SODIUM / TOTAL BILIRUBIN / TOTAL PROTEIN / URIC ACID: tissue Plasma
[1] = 31 mg/kg, 72 h, dose level Low, time 3 day
[2] = 31 mg/kg, 120 h, dose level Low, time 5 day
[3] = 76 mg/kg, 72 h, dose level High, time 3 day
[4] = 76 mg/kg, 120 h, dose level High, time 5 day

O=C1CN(/N=C/c2ccc([N+](=O)[O-])o2)C(=O)N1 [NITROFURANTOIN]
ABSOLUTE BASOPHIL [1]: 0 CELLS/uL | ABSOLUTE EOSINOPHIL [1]: 106.67 CELLS/uL | ABSOLUTE LYMPHOCYTE [1]: 13250.33 CELLS/uL | ABSOLUTE MONOCYTE [1]: 160 CELLS/uL | ABSOLUTE SEGMENTED NEUTROPHIL [1]: 1583 CELLS/uL | BASOPHIL [1]: 0% | EOSINOPHIL [1]: 0.67% | ERYTHROCYTE COUNT [1]: 5.65 x10E6/uL | HEMATOCRIT [1]: 35.43% | HEMOGLOBIN [1]: 13.47 G/DL | LEUKOCYTE COUNT [1]: 15.1 x10E3/uL | LYMPHOCYTE [1]: 88% | MEAN CORPUSCULAR HEMOGLOBIN [1]: 23.9 pg | MEAN CORPUSCULAR HEMOGLOBIN CONCENTRATION [1]: 38.03 G/DL | MEAN CORPUSCULAR VOLUME [1]: 62.77 fL | MONOCYTE [1]: 1% | NEUTROPHIL [1]: 10.33% | NUCLEATED RED BLOOD CELLS [1]: 0.33 /100WBC | PLATELET COUNT [1]: 1275.33 x10E3/uL | ALANINE AMINOTRANSFERASE [1]: 49.33 u/L | ALBUMIN [1]: 4.4 G/DL | ALKALINE PHOSPHATASE [1]: 440.67 u/L | ASPARTATE AMINOTRANSFERASE [1]: 85 u/L | BLOOD UREA NITROGEN [1]: 15.33 mg/dL | CARBON DIOXIDE [1]: 22.67 mmol/L | CHLORIDE [1]: 105.67 MEQ/L | CHOLESTEROL [1]: 74.67 mg/dL | CREATINE PHOSPHOKINASE [1]: 232.33 u/L | CREATININE [1]: 0.25 mg/dL | GLUCOSE [1]: 142.33 mg/dL | LACTATE DEHYDROGENASE [1]: 280 u/L | LIPASE [1]: 9.67 u/L | PHOSPHORUS [1]: 13.57 mg/dL | POTASSIUM [1]: 6.78 MEQ/L | SODIUM [1]: 147.27 MEQ/L | TOTAL BILIRUBIN [1]: 0.27 mg/dL | TOTAL PROTEIN [1]: 6.1 G/DL | URIC ACID [1]: 2.1 mg/dL | ABSOLUTE BASOPHIL [2]: 0 CELLS/uL | ABSOLUTE EOSINOPHIL [2]: 48 CELLS/uL | ABSOLUTE LYMPHOCYTE [2]: 14184 CELLS/uL | ABSOLUTE MONOCYTE [2]: 368 CELLS/uL | ABSOLUTE SEGMENTED NEUTROPHIL [2]: 1000 CELLS/uL | BASOPHIL [2]: 0% | EOSINOPHIL [2]: 0.33% | ERYTHROCYTE COUNT [2]: 5.46 x10E6/uL | HEMATOCRIT [2]: 34.3% | HEMOGLOBIN [2]: 13.23 G/DL | LEUKOCYTE COUNT [2]: 15.6 x10E3/uL | LYMPHOCYTE [2]: 90.67% | MEAN CORPUSCULAR HEMOGLOBIN [2]: 24.3 pg | MEAN CORPUSCULAR HEMOGLOBIN CONCENTRATION [2]: 38.57 G/DL | MEAN CORPUSCULAR VOLUME [2]: 62.93 fL | MONOCYTE [2]: 2.33% | NEUTROPHIL [2]: 6.67% | NUCLEATED RED BLOOD CELLS [2]: 0.33 /100WBC | PLATELET COUNT [2]: 1440 x10E3/uL | ALANINE AMINOTRANSFERASE [2]: 44.67 u/L | ALBUMIN [2]: 4.27 G/DL | ALKALINE PHOSPHATASE [2]: 262 u/L | ASPARTATE AMINOTRANSFERASE [2]: 72.33 u/L | BLOOD UREA NITROGEN [2]: 13.67 mg/dL | CARBON DIOXIDE [2]: 25.67 mmol/L | CHLORIDE [2]: 106.33 MEQ/L | CHOLESTEROL [2]: 58.33 mg/dL | CREATINE PHOSPHOKINASE [2]: 186 u/L | CREATININE [2]: 0.19 mg/dL | GLUCOSE [2]: 159 mg/dL | LACTATE DEHYDROGENASE [2]: 76.67 u/L | LIPASE [2]: 11.67 u/L | PHOSPHORUS [2]: 12.87 mg/dL | POTASSIUM [2]: 6.41 MEQ/L | SODIUM [2]: 147.13 MEQ/L | TOTAL BILIRUBIN [2]: 0.17 mg/dL | TOTAL PROTEIN [2]: 5.97 G/DL | URIC ACID [2]: 2.1 mg/dL | ABSOLUTE BASOPHIL [3]: 0 CELLS/uL | ABSOLUTE EOSINOPHIL [3]: 0 CELLS/uL | ABSOLUTE LYMPHOCYTE [3]: 13972.67 CELLS/uL | ABSOLUTE MONOCYTE [3]: 336.33 CELLS/uL | ABSOLUTE SEGMENTED NEUTROPHIL [3]: 1224.33 CELLS/uL | BASOPHIL [3]: 0% | EOSINOPHIL [3]: 0% | ERYTHROCYTE COUNT [3]: 5.83 x10E6/uL | HEMATOCRIT [3]: 38.1% | HEMOGLOBIN [3]: 13.73 G/DL | LEUKOCYTE COUNT [3]: 15.53 x10E3/uL | LYMPHOCYTE [3]: 89.33% | MEAN CORPUSCULAR HEMOGLOBIN [3]: 23.53 pg | MEAN CORPUSCULAR HEMOGLOBIN CONCENTRATION [3]: 36 G/DL | MEAN CORPUSCULAR VOLUME [3]: 65.37 fL | MONOCYTE [3]: 2.33% | NEUTROPHIL [3]: 8.33% | NUCLEATED RED BLOOD CELLS [3]: 0 /100WBC | PLATELET COUNT [3]: 1452.67 x10E3/uL | ALANINE AMINOTRANSFERASE [3]: 48.67 u/L | ALBUMIN [3]: 4.37 G/DL | ALKALINE PHOSPHATASE [3]: 355.67 u/L | ASPARTATE AMINOTRANSFERASE [3]: 77 u/L | BLOOD UREA NITROGEN [3]: 14.33 mg/dL | CARBON DIOXIDE [3]: 25 mmol/L | CHLORIDE [3]: 103.67 MEQ/L | CHOLESTEROL [3]: 77 mg/dL | CREATINE PHOSPHOKINASE [3]: 150 u/L | CREATININE [3]: 0.21 mg/dL | GLUCOSE [3]: 208.33 mg/dL | LACTATE DEHYDROGENASE [3]: 99 u/L | LIPASE [3]: 9.67 u/L | PHOSPHORUS [3]: 13.23 mg/dL | POTASSIUM [3]: 6.13 MEQ/L | SODIUM [3]: 146.97 MEQ/L | TOTAL BILIRUBIN [3]: 0.23 mg/dL | TOTAL PROTEIN [3]: 6.1 G/DL | URIC ACID [3]: 2.37 mg/dL | ABSOLUTE BASOPHIL [4]: 0 CELLS/uL | ABSOLUTE EOSINOPHIL [4]: 34.67 CELLS/uL | ABSOLUTE LYMPHOCYTE [4]: 10550 CELLS/uL | ABSOLUTE MONOCYTE [4]: 260.33 CELLS/uL | ABSOLUTE SEGMENTED NEUTROPHIL [4]: 1188.33 CELLS/uL | BASOPHIL [4]: 0% | EOSINOPHIL [4]: 0.33% | ERYTHROCYTE COUNT [4]: 5.54 x10E6/uL | HEMATOCRIT [4]: 34.03% | HEMOGLOBIN [4]: 12.9 G/DL | LEUKOCYTE COUNT [4]: 12.03 x10E3/uL | LYMPHOCYTE [4]: 88% | MEAN CORPUSCULAR HEMOGLOBIN [4]: 23.27 pg | MEAN CORPUSCULAR HEMOGLOBIN CONCENTRATION [4]: 37.9 G/DL | MEAN CORPUSCULAR VOLUME [4]: 61.4 fL | MONOCYTE [4]: 2% | NEUTROPHIL [4]: 9.67% | NUCLEATED RED BLOOD CELLS [4]: 0 /100WBC | PLATELET COUNT [4]: 1320 x10E3/uL | ALANINE AMINOTRANSFERASE [4]: 44.67 u/L | ALBUMIN [4]: 4.2 G/DL | ALKALINE PHOSPHATASE [4]: 279.67 u/L | ASPARTATE AMINOTRANSFERASE [4]: 85.67 u/L | BLOOD UREA NITROGEN [4]: 17 mg/dL | CARBON DIOXIDE [4]: 25.67 mmol/L | CHLORIDE [4]: 105 MEQ/L | CHOLESTEROL [4]: 70 mg/dL | CREATINE PHOSPHOKINASE [4]: 220 u/L | CREATININE [4]: 0.18 mg/dL | GLUCOSE [4]: 163.33 mg/dL | LACTATE DEHYDROGENASE [4]: 160.67 u/L | LIPASE [4]: 9.33 u/L | PHOSPHORUS [4]: 12.57 mg/dL | POTASSIUM [4]: 6.4 MEQ/L | SODIUM [4]: 146.63 MEQ/L | TOTAL BILIRUBIN [4]: 0.2 mg/dL | TOTAL PROTEIN [4]: 5.87 G/DL | URIC ACID [4]: 2.37 mg/dL
